In BindingDB's records for patent US11873292 (Shanghai Institute of Materia Medica, 2024):

Columns and labels:
[1] = biological target: Lysine-specific histone demethylase 1A (Homo sapiens, UniProt O60341); experiment: LSD1 in vitro activity assay
[2] = biological target: T1, Amine oxidase [flavin-containing] B (Homo sapiens, UniProt P27338); experiment: MAOA and MAOB In Vitro Activity Assay
T1 sequence (P27338 whole entry): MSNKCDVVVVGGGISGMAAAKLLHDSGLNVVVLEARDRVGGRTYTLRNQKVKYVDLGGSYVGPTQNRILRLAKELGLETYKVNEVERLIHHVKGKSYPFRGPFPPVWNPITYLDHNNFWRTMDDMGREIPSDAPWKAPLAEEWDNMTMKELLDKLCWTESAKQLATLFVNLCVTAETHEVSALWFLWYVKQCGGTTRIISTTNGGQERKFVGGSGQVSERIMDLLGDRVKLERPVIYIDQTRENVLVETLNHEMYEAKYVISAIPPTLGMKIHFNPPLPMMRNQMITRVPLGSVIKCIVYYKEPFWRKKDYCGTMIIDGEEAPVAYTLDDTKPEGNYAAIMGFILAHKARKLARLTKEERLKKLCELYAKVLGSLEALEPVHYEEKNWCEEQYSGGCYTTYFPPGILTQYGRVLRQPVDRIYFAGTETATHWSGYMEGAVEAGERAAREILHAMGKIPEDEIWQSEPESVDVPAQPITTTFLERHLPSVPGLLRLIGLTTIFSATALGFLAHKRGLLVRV

[3] = biological target: T2, Amine oxidase [flavin-containing] A (Homo sapiens, UniProt P21397); experiment: MAOA and MAOB In Vitro Activity Assay
T2 sequence (P21397 whole entry): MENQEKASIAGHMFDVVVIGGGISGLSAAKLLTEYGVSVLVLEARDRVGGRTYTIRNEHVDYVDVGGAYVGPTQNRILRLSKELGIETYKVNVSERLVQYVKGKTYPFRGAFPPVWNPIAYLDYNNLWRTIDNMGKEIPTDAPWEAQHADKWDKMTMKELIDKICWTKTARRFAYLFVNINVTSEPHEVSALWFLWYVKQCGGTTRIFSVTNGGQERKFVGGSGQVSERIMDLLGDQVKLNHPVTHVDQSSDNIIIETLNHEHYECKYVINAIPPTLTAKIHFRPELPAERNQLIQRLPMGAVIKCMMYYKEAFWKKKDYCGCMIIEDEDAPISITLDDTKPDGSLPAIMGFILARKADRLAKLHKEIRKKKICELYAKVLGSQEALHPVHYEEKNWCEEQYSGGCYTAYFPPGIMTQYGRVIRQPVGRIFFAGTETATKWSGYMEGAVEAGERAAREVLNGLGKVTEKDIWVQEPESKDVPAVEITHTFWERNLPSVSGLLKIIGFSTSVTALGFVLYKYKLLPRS

## O=S(=O)(c1ccccc1)N1CCc2cc(C3CC3NCc3c[nH]c4ccccc34)ccc21 (trans isomer) [US11873292, Compound A8]
[1]
  IC50: 0.0851 µM
[2]
  IC50: > 100 µM
[3]
  IC50: 81.7 µM
